Experimental data: US8168832B2, “2,4,6-trialkylphenyl substituted cyclopentane-1,3-dione” (Bayer Cropscience AG, priority 2006, dated 2012)

How the values were obtained:
crop plants (cereal) = test: Container trials with cereal in the greenhouse, mefenpyr 1 day prior to herbicide application (Example B, use of safeners); assay type: in vivo; conditions: without safener
Description: Seeds of monocotyledonous and dicotyledonous weed and crop plants are placed into sandy loam in wood fiber pots or in plastic pots, covered with soil and cultivated in a greenhouse, during the vegetation period also outdoors outside of the greenhouse, under good growth conditions. 2 to 3 weeks after sowing, the test plants are treated at the one- to three-leaf stage. The test compounds, formulated as wettable powders (WP) or liquid (EC), are, in various dosages at a water application rate of 300 l/ha (converted), with wetting agent (0.2 to 0.3%) added, sprayed onto the plants and the surface of the soil. […]
If it is additionally to be tested as to whether safeners can improve the plant compatibility of test substances in the case of crop plants, the following options are used for applying the safener: • seeds of the crop plants are, before sowing, dressed with the safener substance (the amount of safener stated in percent, based on the weight of the seed) • before the application of the test substances, the crop plants are sprayed with the safener at a certain application rate per hectare (usually 1 day before the application of the test substances) • the safener is applied together with the test substance as a tank mix (the amount of safener is stated in g/ha or as a ratio, based on the herbicide). • By comparing the effect of test substances on crop plants without or with safener treatment, it is possible to assess the effect of the safener substance.
Container Trials with Cereal in the Greenhouse
Mefenpyr 1 Day Prior to Herbicide Application

[1] = test system: monocotyledonous and dicotyledonous weed and crop plants; test: Herbicidal post-emergence action (Example B), also comparison with known compounds; assay type: in vivo; parameters: key: % herbicidal effect: 0 = like control, 100 = plants died
Description: Seeds of monocotyledonous and dicotyledonous weed and crop plants are placed into sandy loam in wood fiber pots or in plastic pots, covered with soil and cultivated in a greenhouse, during the vegetation period also outdoors outside of the greenhouse, under good growth conditions. 2 to 3 weeks after sowing, the test plants are treated at the one- to three-leaf stage. The test compounds, formulated as wettable powders (WP) or liquid (EC), are, in various dosages at a water application rate of 300 l/ha (converted), with wetting agent (0.2 to 0.3%) added, sprayed onto the plants and the surface of the soil. 3 to 4 weeks after the treatment of the test plants, the effect of the preparations is rated visually in comparison to untreated controls (herbicidal effect in percent (%): 100% effect=the plants have died, 0% effect=like control plants).

[2] = 10 days after application, 25 g of a.i./ha
[3] = 10 days after application, 50 g of a.i./ha
[4] = 10 days after application, 100 g of a.i./ha
[5] = 10 days after application, 200 g of a.i./ha
[6] = 28 days after application, 25 g of a.i./ha
[7] = 28 days after application, 50 g of a.i./ha
[8] = 28 days after application, 100 g of a.i./ha
[9] = 28 days after application, 12.5 g of a.i./ha

Row | SMILES | Summer wheat observed (%) (crop plants (cereal); [2]) | Summer barley observed (%) (crop plants (cereal); [3]) | Summer wheat observed (%) (crop plants (cereal); [3]) | Summer barley observed (%) (crop plants (cereal); [4]) | Summer wheat observed (%) (crop plants (cereal); [4]) | Summer wheat observed (%) (crop plants (cereal); [6]) | Summer barley observed (%) (crop plants (cereal); [7]) | Summer wheat observed (%) (crop plants (cereal); [7]) | Summer barley observed (%) (crop plants (cereal); [8]) | Summer wheat observed (%) (crop plants (cereal); [8]) | Summer wheat observed (%) (crop plants (cereal); [9]) | Summer barley observed (%) (crop plants (cereal); [6]) | further results
1 | CCc1cc(C)cc(CC)c1C1=C(O)C2CC3OC(C)(C)OC3CC2C1=O (mixture of isomers) [I-a-13] | 50 | 50 | 80 | 60 | 80 |  |  |  |  |  |  |  | Summer barley observed (%) (crop plants (cereal); [2]): 30%
2 | CCc1cc(C)cc(CC)c1C1=C(OC(=O)C(C)C)[C@H]2CCCC[C@H]2C1=O (relative stereo) [I-b-23] | 40 | 60 | 70 | 60 | 80 |  |  |  |  |  |  |  | Summer wheat observed (%) (crop plants (cereal); 10 days after application, 12.5 g of a.i./ha): 30%; Summer barley observed (%) (crop plants (cereal); [2]): 30%
3 | CCc1cc(C)cc(CC)c1C1=C(OC(=O)C(C)(C)C)[C@H]2CCCC[C@H]2C1=O (relative stereo) [I-b-24] | 30 | 20 | 60 | 50 | 65 |  |  |  |  |  |  |  | ALOMY ([1]; 100 g/ha): 80; AVEFA ([1]; 100 g/ha): 90; LOLMU ([1]; 100 g/ha): 95; ALOMY ([1]; 200 g/ha): 90; AVEFA ([1]; 200 g/ha): 95; LOLMU ([1]; 200 g/ha): 98; Summer barley observed (%) (crop plants (cereal); [5]): 60%; Summer wheat observed (%) (crop plants (cereal); [5]): 70%
4 | CCc1cc(C)cc(CC)c1C1=C(OC(=O)COC)[C@H]2CCCC[C@H]2C1=O (relative stereo) [I-b-25] |  |  |  |  |  | 10 | 40 | 50 | 95 | 70 |  |  | 
5 | CCc1cc(C)cc(CC)c1C1=C(OC(=O)C(C)(C)C)[C@H]2CCCC[C@@H]2C1=O (relative stereo) [I-b-26] |  |  |  |  |  |  | 20 | 15 | 80 | 70 |  |  | ALOMY ([1]; 100 g/ha): 95; AVEFA ([1]; 100 g/ha): 98; LOLMU ([1]; 100 g/ha): 70; ALOMY ([1]; 200 g/ha): 97; AVEFA ([1]; 200 g/ha): 98; LOLMU ([1]; 200 g/ha): 100
6 | CCc1cc(C)cc(CC)c1C1=C(OC(=O)COC)[C@H]2CCCC[C@@H]2C1=O (relative stereo) [I-b-27] |  |  |  |  |  | 20 | 20 | 40 | 50 | 70 | 10 |  | 
7 | CCc1cc(C)cc(CC)c1C1=C(OC(=O)C(C)C)[C@H]2CCCC[C@@H]2C1=O (relative stereo) [I-b-28] |  |  |  |  |  | 70 | 75 | 80 |  |  | 10 | 30 | Summer barley observed (%) (crop plants (cereal); [9]): 20%
8 | CCc1cc(C)cc(C)c1C1C(=O)[C@H]2CCCC[C@@H]2C1=O [I-a-1] |  |  |  |  |  | 40 | 70 | 50 |  | 50 | 10 | 50 | Summer barley observed (%) (crop plants (cereal); [9]): 5%
9 | CCc1cc(C)cc(C)c1C1=C(O)C2(CCCCC2)CC1=O [I-a-3] |  | 20 |  |  |  | 25 |  | 25 |  |  |  |  | Summer barley observed (%) (crop plants (cereal); [2]): 15%
10 | CCc1cc(C)cc(CC)c1C1=C(O)C2CCCCC2C1=O (centres unmarked) [I-a-9] |  |  |  |  |  | 5 | 50 | 60 |  | 60 |  | 20 | ALOMY ([1]; 100 g/ha): 98; AVEFA ([1]; 100 g/ha): 100; LOLMU ([1]; 100 g/ha): 99; ALOMY ([1]; 200 g/ha): 98; AVEFA ([1]; 200 g/ha): 100; LOLMU ([1]; 200 g/ha): 99
11 | CCc1cc(CC)c(C2=C(O)C3CCCCC3C2=O)c(CC)c1 (centres unmarked) [I-a-15] |  | 20 | 20 | 30 | 30 |  |  |  |  |  |  |  | 
12 | CCc1cc(C)cc(C)c1C1=C(O)C2CCCCCC2C1=O (centres unmarked) [I-a-18] |  |  |  |  |  | 60 | 50 | 70 | 90 | 80 |  | 20 | 
13 | CCc1cc(C)cc(C)c1C1=C(OC(=O)COC)C2(CCCC2)CC1=O [I-b-11] |  |  | 30 |  | 50 |  |  |  |  |  |  |  | 
14 | CCc1cc(C)cc(C)c1C1=C(OC(=O)COC)C2CCCCC2C1=O (centres unmarked) [I-b-13] |  |  |  |  |  | 70 | 90 | 85 |  |  | 20 | 20 | Summer barley observed (%) (crop plants (cereal); [9]): 10%
15 | CCc1cc(C)cc(C)c1C1=C(OC(=O)COC)C2CCCCC2C1=O (centres unmarked) [I-b-15] |  |  |  |  |  | 30 | 30 | 50 | 90 | 85 | 10 | 10 | 
16 | CCc1cc(C)cc(C)c1C1=C(OC(=O)C(C)C)C2CCCCC2C1=O (centres unmarked) [I-b-16] | 20 | 40 | 50 | 60 | 60 |  |  |  |  |  |  |  | Summer barley observed (%) (crop plants (cereal); [2]): 20%
17 | CCC(=O)OC1=C(c2c(C)cc(C)cc2CC)C(=O)C2CCCCC12 (centres unmarked) [I-b-21] |  |  |  |  |  | 60 | 50 | 70 | 95 |  | 20 | 30 | Summer barley observed (%) (crop plants (cereal); [9]): 5%
18 | CCc1cc(C)cc(CC)c1C1=C(OC(=O)COC)C2(CCCCC2)CC1=O [I-b-33] | 15 |  | 30 |  | 65 |  |  |  |  |  |  |  | 
19 | CCc1cc(CC)c(C2=C(OC(=O)COC)C3CCCCC3C2=O)c(CC)c1 (centres unmarked) [I-b-42] | 40 | 40 | 50 | 50 | 50 |  |  |  |  |  |  |  | Summer barley observed (%) (crop plants (cereal); [2]): 20%
20 | CCC(=O)OC1=C(c2c(CC)cc(C)cc2CC)C(=O)C2CCCCC12 (centres unmarked) [I-b-44] | 20 | 40 | 40 | 40 | 40 |  |  |  |  |  |  |  | Summer barley observed (%) (crop plants (cereal); [2]): 20%
21 | CCOC(=O)OC1=C(c2c(C)cc(C)cc2CC)C(=O)C2CCCCC12 (centres unmarked) [I-c-4] |  |  |  |  |  | 20 | 30 | 90 | 80 | 95 | 10 | 10 | Summer barley observed (%) (crop plants (cereal); [9]): 5%
22 | CCOC(=O)OC1=C(c2c(CC)cc(C)cc2CC)C(=O)C2CCCCC12 (centres unmarked) [I-c-8] | 50 | 20 | 70 | 30 | 80 |  |  |  |  |  |  |  | Summer barley observed (%) (crop plants (cereal); [2]): 15%
23 | CCOC(=O)OC1=C(c2c(CC)cc(C)cc2CC)C(=O)C2CCCCC12 (centres unmarked) [I-c-9] |  |  |  |  |  | 30 | 40 | 60 | 90 | 70 | 10 | 20 | Summer barley observed (%) (crop plants (cereal); [9]): 10%
24 | CCc1cc(C)cc(CC)c1C1=C(OC(=O)OC)C2CCCCC2C1=O (centres unmarked) [I-c-10] |  |  |  |  |  | 40 | 50 | 80 | 90 | 85 |  | 25 | 
25 | CCc1cc(C)cc(CC)c1C1=C(OC(=O)OC)C2CCCCC2C1=O (centres unmarked) [I-c-14] |  |  |  |  |  | 80 | 93 | 95 |  |  | 20 | 30 | 
